The values that follow come from US8575189B2, “Tacrolimus preparation for external applications” (Takata Seiyaku Co., Ltd., priority 2008, dated 2013).

A short description of the data set: Solubility of tacrolimus in triacetin. It is filed as physicochemical. Particulars: free form, in triacetin at 25° C. The protocol: [drawing 2] (chemical name: glycerin triacetate). The properties of triacetin are described in Iyakuhin Tenkabutsu Kikaku 2003 and Iyakuhin Tenkabutsu Jiten 2007 (Yakuji Nippo), which are incorporated herein by reference. Tacrolimus in a free form may dissolve in triacetin at 25° C. in the ratio of about 12.5 g/100 g. Preferably, the external preparation of the present invention comprises triacetin at 0.1 to 30% by weight, more preferably 1.0 to 20% by weight, still more preferably 3.0 to 6.0% by weight, most preferably 4.0 to 5.0% by weight for the total amount of the preparation.

Take “17-aryl-1,14-dihydroxy-12-[2-(4-hydroxy-3-methoxycyclohexyl)-1-methylbinyl]-23,25-dimethoxy-13,19,21,27-tetramethyl-11,28-dioxa-4-azatricyclo [22.3.1.04, 9] octacos-18-en-2,3,10,16-tetraone [Tacrolimus]”: the “dissolve in triacetin (ratio)” value is reported as “about 12.5 g/100 g”.
